Results published in patent US20110287468A1, “METHODS AND COMPOSITIONS FOR ASSAYING ENZYMATIC ACTIVITY OF MYELOPEROXIDASE IN BLOOD SAMPLES” (General Atomics, priority 2010, published 2011).

How the values were obtained:
Type in all cases: biochemical
MPO [1] = molecular target: T1, MPO (Homo sapiens, UniProt P05164); experiment: Sensitivity of chromogenic substrates: MPO peroxidase activity in buffer solution; settings: 0.24 mM H2O2, 94 ng/mL MPO, 100 mM phosphate buffer pH 6.0-7.0; for ΔOD/min: read at the substrate's wavelength; for Sensitivity: class of ΔOD/min
Excerpt: Substrate sensitivity was designated as “high” if ΔOD/min was above 0.2, “fair” if ΔOD/min was between 0.05 and 0.2, and “poor” if ΔOD/min was below 0.05.

MPO [2] = molecular target: T1, MPO; experiment: Interference by a specific MPO inhibitor (ABAH) added to the formed dye; settings: 0.2 mM H2O2, 47 ng/mL MPO, 100 mM phosphate buffer pH 6.0-7.0; for Interference by Inhibitor: 0.1 mM ABAH added to the formed dye; for ΔOD/min (after inhibitor): after 0.1 mM ABAH; for ΔOD/min (before inhibitor): before ABAH
Protocol: Interference by a specific MPO inhibitor was evaluated by adding 0.1 mM of 4-aminobenzoic acid hydrazide (ABAH) to the formed dye (i.e. the colored product of the substrate oxidation) in the buffer solution. Before the addition of the inhibitor, the reaction mixture contained the chromogenic substrates, as well as 0.2 mM H2O2 (co-substrate) and 47 ng/mL MPO in 100 mM phosphate buffer (pH 6.0-7.0). Interference by the inhibitor was designated as “low” if the absorption changed by ≦0.01 ΔOD/min and “high” if the absorption changed by >0.01 ΔOD/min. The results are summarized in Tables 2 and 6, and the corresponding kinetic traces are shown on FIG. 1.

MPO [3] = molecular target: T2, MPO (Homo sapiens, UniProt P05164); experiment: MPO peroxidase assay in lithium heparin plasma (Hitachi 917): effects of common plasma substances on assay performance; settings: nearly neutral pH
T2 construct: In a cuvette, 140 μL of Reagent 1 and 25 μL of plasma sample were mixed; from tissue; host or cells: human lithium heparin plasma
T2 sequence (P05164 49-745): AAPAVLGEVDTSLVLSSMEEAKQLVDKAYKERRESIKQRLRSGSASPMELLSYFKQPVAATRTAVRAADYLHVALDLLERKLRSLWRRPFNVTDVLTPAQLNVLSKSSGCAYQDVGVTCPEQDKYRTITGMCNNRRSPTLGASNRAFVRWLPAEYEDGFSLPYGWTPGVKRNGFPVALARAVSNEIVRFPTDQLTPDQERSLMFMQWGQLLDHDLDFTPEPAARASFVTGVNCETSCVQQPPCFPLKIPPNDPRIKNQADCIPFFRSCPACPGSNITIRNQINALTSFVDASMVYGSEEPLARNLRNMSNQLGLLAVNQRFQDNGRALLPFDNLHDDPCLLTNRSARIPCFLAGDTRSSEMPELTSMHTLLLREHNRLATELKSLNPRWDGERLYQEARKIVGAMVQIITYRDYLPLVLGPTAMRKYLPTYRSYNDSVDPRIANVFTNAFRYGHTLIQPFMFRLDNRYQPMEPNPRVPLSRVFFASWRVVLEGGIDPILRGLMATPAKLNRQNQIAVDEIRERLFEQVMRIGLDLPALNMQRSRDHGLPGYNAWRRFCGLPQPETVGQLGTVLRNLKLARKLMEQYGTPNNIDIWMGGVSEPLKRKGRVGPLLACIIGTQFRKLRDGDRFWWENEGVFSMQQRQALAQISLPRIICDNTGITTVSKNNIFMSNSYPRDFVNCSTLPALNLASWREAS
Protocol: To measure MPO peroxidase activity in blood samples, the following liquid stable, ready-to-use assay reagents were used:
The MPO peroxidase assay is formulated for use with non-hemolyzed lithium heparin plasma. No special handling or pretreatment is required. Plasma samples were collected such that testing could be performed as soon as possible after the specimen collection. Although the specimens may be refrigerated at 2-8° C. for 2-5 days, freezing plasma samples may lead to a decrease in MPO peroxidase activity.
In a cuvette, 140 μL of Reagent 1 and 25 μL of plasma sample were mixed and incubated at 37° C. for 1.5 minutes. Absorbance at 505 nm was read at about 2 minutes after the addition of 60 μL Reagent 2 as A1. The reaction was then incubated for approximately 3 more minutes, and the absorbance was read again as A2. The rate of the total peroxidation reaction was calculated as follows: Rate A=(A2−A1)/t, wherein t≈3 min
At about 5 minutes after the addition of Reagent 2, 46 μL of Reagent 3 was added to the reaction mix. Absorbance at 505 nm was read at about 2 minutes after the addition of Reagent 3 as A3. The reaction was then incubated for approximately 3 more minutes and the absorbance was read again as A4. The rate of the non-MPO peroxidation reaction was calculated as follows: Rate B=(A4−A3)/t, wherein t 3 min […]

Compound | ΔOD/min (MPO [1]) | Sensitivity (MPO [1]) | other results
O=N[O-].[K+] [KNO2, Potassium nitrite] | No signal | Poor (“poor” if ΔOD/min was below 0.05) | –
N-Ethyl-N-(2-hydroxy-3-sulfopropyl)-3-methoxylaniline, sodium salt, dehydrate/4AA [ADOS/4AA] | 0.04 ΔOD/min | Poor (“poor” if ΔOD/min was below 0.05) | –
CCCCCCCCCCCCCC[N+](C)(C)Cc1ccccc1.[Cl-] [TDBA, Tetradecyldimethylbenzylammonium chloride] | 0 ΔOD/min | Poor (“poor” if ΔOD/min was below 0.05) | –
N-Ethyl-N-(3-sulfopropyl)-3-methylaniline, sodium salt/4AA [TOPS/4AA] | 0.055 ΔOD/min | – | –
4-Methylcatechol/4AA [4-MC/4AA] | – | Poor (“poor” if ΔOD/min was below 0.05) | Interference by Inhibitor (MPO [2]): high numbers of false positives
N-Ethyl-N-(3-sulfopropyl)-aniline, sodium salt/4AA [ALPS/4AA] | – | – | ΔOD/min (after inhibitor) (MPO [2]): −0.003 ΔOD/min; ΔOD/min (before inhibitor) (MPO [2]): 0.086 ΔOD/min
N-Ethyl-N-(2-hydroxy-3-sulfopropyl)-3,5-dimethoxyaniline, sodium salt/4AA [DAOS/4AA] | 0.025 ΔOD/min | Poor (“poor” if ΔOD/min was below 0.05) | –
CN(C)c1ccc(N(C(=O)NCC(=O)[O-])c2ccc(N(C)C)cc2)cc1.[Na+] [DA64, N-(Carboxymethylaminocarbonyl)-4,4′-bis(dimethylamino)-diphenylamine sodium salt] | 0.0012 ΔOD/min | Poor (“poor” if ΔOD/min was below 0.05) | –
Cc1cc(-c2cc(C)c(N)c(C)c2)cc(C)c1N [TMB, 3,3′,5,5′-Tetramethylbenzidine] | 0.32 ΔOD/min | High (“high” if ΔOD/min was above 0.2) | –
COc1ccccc1O [Guaiacol, 1-Hydroxy-2-methoxybenzene; 2-Methoxyphenol] | 0.37 ΔOD/min | High (“high” if ΔOD/min was above 0.2) | –
N,N-Bis(4-sulfobutyl)-3,5-dimethylaniline, disodium salt/4AA [MADB/4AA] | 0.04 ΔOD/min | Poor (“poor” if ΔOD/min was below 0.05) | –
N-Ethyl-N-(3-sulfopropyl)-3-methoxyaniline, sodium salt, monohydrate/4AA [ADPS/4AA] | 0.004 ΔOD/min | Poor (“poor” if ΔOD/min was below 0.05) | –
CC(=O)N1c2ccc(O)cc2Oc2cc(O)ccc21 [Amplex, N-Acetyl-3,7-dihydroxyphenoxazine (Amplex ® UltraRed)] | 0.018 ΔOD/min | Poor (“poor” if ΔOD/min was below 0.05) | –
Cc1cc(-c2ccc(NCC(O)CS(=O)(=O)[O-])c(C)c2)ccc1NCC(O)CS(=O)(=O)[O-].[Na+].[Na+] (centres unmarked) [SAT-3, N,N′-Bis(2-hydroxy-3-sulfopropyl)tolidine, disodium salt,] | 0 ΔOD/min | Poor (“poor” if ΔOD/min was below 0.05) | –
N-Ethyl-N-(3-sulfopropyl)-aniline, sodium salt (ALPS)/3-Methyl-2-benzothiazolinone hydrazone (MBTH) [ALPS/MBTH] | – | Fair (“fair” if ΔOD/min was between 0.05 and 0.2) | Interference by Inhibitor (MPO [2]): high numbers of false positives
Nc1ccc(-c2ccc(N)c(N)c2)cc1N [DAB, 3,3′-Diaminobenzidine] | 0.0093 ΔOD/min | Poor (“poor” if ΔOD/min was below 0.05) | –
N-Ethyl-N-(2-hydroxy-3-sulfopropyl)-3-methylaniline, sodium salt, dehydrate/4-Aminoantipyrine (4AA) [TOOS/4AA] | 0.12 ΔOD/min | – | ΔOD/min (after inhibitor) (MPO [2]): 0.004 ΔOD/min; ΔOD/min (before inhibitor) (MPO [2]): 0.087 ΔOD/min
3,5-Dichloro-2-hydroxybenzenesulfonate, disodium salt/4AA or 3,5-Dichloro-2-hydroxybenzenesulfonic acid/4AA [DHBS/4AA] | – | – | ΔOD/min (after inhibitor) (MPO [2]): 0.002 ΔOD/min; ΔOD/min (before inhibitor) (MPO [2]): 0.089 ΔOD/min
N,N-Bis(4-sulfobutyl)-3-methylaniline, disodium salt (TODB)/3-Methyl-2-benzothiazolinone hydrazone (MBTH) [TODB/MBTH] | – | Fair (“fair” if ΔOD/min was between 0.05 and 0.2) | Interference by Inhibitor (MPO [2]): high numbers of false positives
COc1cc(-c2ccc(N)c(OC)c2)ccc1N.Cl.Cl [o-dianisidine, o-Dianisidine dihydrochloride] | – | – | Sensitivity (MPO [1]; dihydrochloride): precipitated out of solution; behaviour of the chromogenic substrate in blood samples (MPO [3]): precipitated from blood samples
N-(2-Hydroxy-3-sulfopropyl)-3,5-dimethoxyaniline, sodium salt/4AA [HDAOS/4AA] | 0.03 ΔOD/min | Poor (“poor” if ΔOD/min was below 0.05) | –
N,N-dimethylaniline (DMA)/3-Methyl-2-benzothiazolinone hydrazone (MBTH) [DMA/MBTH] | – | Poor (“poor” if ΔOD/min was below 0.05) | –
N,N-Bis(4-sulfobutyl)-3-methylaniline, disodium salt/4AA [TODB/4AA] | 0.07 ΔOD/min | – | ΔOD/min (after inhibitor) (MPO [2]): 0.001 ΔOD/min; ΔOD/min (before inhibitor) (MPO [2]): 0.077 ΔOD/min
CN(C)c1ccc2c(c1)Sc1cc(N(C)C)ccc1N2C(=O)NCC(=O)[O-].[Na+] [DA67, 10-(Carboxymethylaminocarbonyl)-3,7-bis(dimethylamino)-phenothiazine sodium salt] | 0.023 ΔOD/min | Poor (“poor” if ΔOD/min was below 0.05) | –
N-Ethyl-N-(2-hydroxy-3-sulfopropyl)-3,5-dimethylaniline, sodium salt, monohydrate/4AA [MAOS/4AA] | 0.045 ΔOD/min | Poor (“poor” if ΔOD/min was below 0.05) | –
